According to patent US10695387B2, “Extracts of microalgae and plants for regulating sebum production” (Cutech SRL, priority 2014, dated 2020):

System: human sebaceous glands (hSGs)
Experiment: Ex-vivo culture of human sebaceous glands (hSGs), quantification of sebum content (lipids/proteins) vs control
Assay type: cell-based
Details: positive control
From the text: All the reported examples are intended to show the modulation of sebum production exerted by the experimental preparations on human hSGs microdissected and cultivated up to day 6. At the end of the culture time, the sebum is extracted and quantified from each experimental group of hSGs and then normalized by the proteins extracted from the residual hSG material (mg lipids/mg proteins). As a result, the biological activity of the tested compounds is inferred by comparing the ratio lipids/proteins of the treated glands with that of the control group.
Using micro-scissors and tweezers, hSGs were isolated from the pilosebaceous units of a scalp skin sample. They were seeded in 24-well plates at the density of 8 hSGs/well and then cultivated in 500 μl of modified William E medium. After 24 hours of culture the viability of the hSGs was assessed by means of resazurine assay. Briefly, each hSGs group was transferred onto a microplate well with 200 μl of 10% resazurin culture medium for 2 hours. During this period the resazurin, a non-fluorescent blue dye, is reduced by living cells to the pink coloured and highly red fluorescent resorufin. At the end of the incubation, the medium was withdrawn and analyzed for the resazurin fluorescence in a plate reader ([…]). The fluorescence signal positively correlates with the hSGs viability. Since the resazurin test is not toxic, the hSGs were then seeded in a 24-well plate and cultivated with the experimental culture media in order to start the treatments. The control received William E medium appropriately modified, while the samples submitted to experimental treatments received the same medium supplemented with experimental extracts. The culture medium was renewed every other day. After six days of organ culture, the viability of the hSGs was again assessed via resazurine assay and then, having attested their good viability, each group of hGSs was collected and analyzed for quantifying the sebum content.
Each hSG group was homogenized in 100 μl of isopropyl alcohol;
the sample was centrifuged at 14,000 G for 5 minutes and then the supernatant (containing the extracted sebum) was collected;
the sebum extract was analyzed in triplicate with a Direct Detect IR Spectrometer (Millipore), which provided the total lipid concentration of the supernatant (mg/ml);
the total lipids of the hSGs was quantified multiplying the supernatant lipid concentration (indention 3) by the volume of isopropyl alcohol adopted for the lipid extraction (indention 1);
the pellet remaining from indention 2 was dried by means of a vacuum dry evaporator and then again homogenized in 50 μl of proteolytic buffer (20 mM Tris/HCl pH 7.5, 150 mM NaCl, 2 mM EDTA, 0.5% Triton X-100, 2 mM DTT, 1% protease inhibitor cocktail);
after an appropriate incubation time, this extractive mixture was centrifuged at 14,000 G for 10 minutes and the supernatant was collected and analyzed in triplicate with a Direct Detect IR Spectrometer (Millipore);
the obtained total protein concentration was multiplied by the extractive volume (indention 5) in order to quantify the total proteins of the hSGs;
the total lipid amount (indention 4), i.e. the amount of sebum, was divided by the total proteins (indention 7) in order to obtain the normalized amount of lipids per mg of proteins (mg of lipids/mg of proteins).
The amounts of normalized lipids obtained from the treated groups, i.e. the sebum produced by each group of hSGs, were expressed in percentages with respect to the value obtained in the control group, in order to point out the regulatory effect performed by the experimental treatment.

COc1cc(CNC(=O)CCCC/C=C/C(C)C)ccc1O [Capsaicin]
Sebum content in hSGs, Average, % ratio of the control group performance (Table 2 experiment, 5 μM): 90.3%
Sebum content in hSGs, Average, % ratio of the control group performance (Table 5 experiment, Amount 0): 68.5%
Sebum content in hSGs, Average, % ratio of the control group performance (Table 6 experiment (different donor), Amount 0): 59.2%
Sebum content in hSGs, Average, % ratio of the control group performance (Table 7 experiment, Amount 0): 97.4%
Sebum content in hSGs, Average, % ratio of the control group performance (Table 8 experiment, Amount 0): 91.9%
Sebum content in hSGs, Average, % ratio of the control group performance (Table 10 experiment, 5 μg/ml): 62.9%
